Laboratory results published in PubChem BioAssay (NCI).
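These data come from cells grown in 96-well plates and exposed to compound for 48 hours at five concentrations. TGI denotes the concentration required for complete inhibition of growth.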

Assays:
Experiment in all cases: NCI-60 cell line screen, 48 h
ACHN renal = test system: ACHN renal
PC-3 prostate = test system: PC-3 prostate
MDA-N = test system: MDA-N
TK-10 renal = test system: TK-10 renal
OVCAR-5 ovarian = test system: OVCAR-5 ovarian
NCI-H226 lung = test system: NCI-H226 lung
RXF 393 renal = test system: RXF 393 renal
HOP-92 NSCLC = test system: HOP-92 NSCLC
HT29 colon = test system: HT29 colon
SNB-75 CNS = test system: SNB-75 CNS
NCI-H23 lung = test system: NCI-H23 lung
MDA-MB-435 = test system: MDA-MB-435
NCI-H522 lung = test system: NCI-H522 lung
786-0 renal = test system: 786-0 renal
MALME-3M melanoma = test system: MALME-3M melanoma
SK-MEL-5 melanoma = test system: SK-MEL-5 melanoma
MDA-MB-231 breast = test system: MDA-MB-231 breast
A498 renal = test system: A498 renal
SR leukemia = test system: SR leukemia
UACC-257 melanoma = test system: UACC-257 melanoma
NCI-H460 lung = test system: NCI-H460 lung
HS 578T breast = test system: HS 578T breast
OVCAR-8 ovarian = test system: OVCAR-8 ovarian
OVCAR-4 ovarian = test system: OVCAR-4 ovarian
RPMI-8226 leukemia = test system: RPMI-8226 leukemia
MOLT-4 leukemia = test system: MOLT-4 leukemia
NCI/ADR-RES ovarian = test system: NCI/ADR-RES ovarian
IGROV1 ovarian = test system: IGROV1 ovarian
SK-MEL-28 melanoma = test system: SK-MEL-28 melanoma
UACC-62 melanoma = test system: UACC-62 melanoma
HL-60(TB) leukemia = test system: HL-60(TB) leukemia
COLO 205 colon = test system: COLO 205 colon
HCT-116 colon = test system: HCT-116 colon
HOP-62 NSCLC = test system: HOP-62 NSCLC
MCF7 breast = test system: MCF7 breast
CAKI-1 renal = test system: CAKI-1 renal
SF-539 CNS = test system: SF-539 CNS
HCT-15 colon = test system: HCT-15 colon
SN12C renal = test system: SN12C renal
U251 CNS = test system: U251 CNS
BT-549 breast = test system: BT-549 breast
CCRF-CEM leukemia = test system: CCRF-CEM leukemia
UO-31 renal = test system: UO-31 renal
OVCAR-3 ovarian = test system: OVCAR-3 ovarian
SNB-19 CNS = test system: SNB-19 CNS
KM12 colon = test system: KM12 colon
M14 melanoma = test system: M14 melanoma
SK-MEL-2 melanoma = test system: SK-MEL-2 melanoma
EKVX NSCLC = test system: EKVX NSCLC
HCC-2998 colon = test system: HCC-2998 colon
SF-268 CNS = test system: SF-268 CNS
LOX IMVI melanoma = test system: LOX IMVI melanoma
K-562 leukemia = test system: K-562 leukemia
SF-295 CNS = test system: SF-295 CNS
DU-145 prostate = test system: DU-145 prostate
SW-620 colon = test system: SW-620 colon
SK-OV-3 ovarian = test system: SK-OV-3 ovarian
A549 NSCLC = test system: A549 NSCLC
T-47D breast = test system: T-47D breast

Measured: TGI

C=C1C(=O)CC2C(=O)C(C)(O)CC/C=C(\C)C(=O)CC12 (stereo not drawn)
> 76.1 µM: SF-268 CNS
> 82.9 µM: SK-MEL-2 melanoma
59.8 µM: SF-539 CNS
7.98 µM: CAKI-1 renal
23.5 µM: CCRF-CEM leukemia
35.4 µM: LOX IMVI melanoma
74.7 µM: MDA-MB-231 breast
35.6 µM: 786-0 renal | SK-MEL-5 melanoma
> 44.1 µM: K-562 leukemia
55.5 µM: UACC-257 melanoma
37.5 µM: IGROV1 ovarian
> 34.2 µM: SW-620 colon
> 63.6 µM: OVCAR-8 ovarian
17.1 µM: NCI-H522 lung | MOLT-4 leukemia
> 57.3 µM: HOP-92 NSCLC
27.3 µM: ACHN renal
37.7 µM: HCT-15 colon
27.4 µM: COLO 205 colon
91.8 µM: UACC-62 melanoma
82.9 µM: RPMI-8226 leukemia
40.3 µM: RXF 393 renal
53.9 µM: EKVX NSCLC
> 55.7 µM: MDA-MB-435
45.7 µM: NCI-H23 lung
> 55.1 µM: SR leukemia
47.2 µM: OVCAR-5 ovarian
> 64.9 µM: HT29 colon
43.5 µM: HS 578T breast
> 55.6 µM: SK-MEL-28 melanoma
21.1 µM: UO-31 renal
83 µM: PC-3 prostate
8.87 µM: HL-60(TB) leukemia
27.1 µM: MALME-3M melanoma
36.6 µM: MCF7 breast
42.2 µM: DU-145 prostate
29.5 µM: SN12C renal
35.5 µM: BT-549 breast
34.4 µM: TK-10 renal
> 77.3 µM: NCI-H226 lung
37.1 µM: MDA-N
31 µM: M14 melanoma
59 µM: OVCAR-3 ovarian
> 58.2 µM: OVCAR-4 ovarian
23 µM: HCT-116 colon
not listed: T-47D breast
> 100 µM: all other assays above

NCCN=C(Nc1ccccc1)Nc1ccccc1
not listed: ACHN renal | OVCAR-5 ovarian | HOP-92 NSCLC | A498 renal | T-47D breast
> 100 µM: all other assays above

O=C(Cc1ccccc1)NN1C(=O)/C(=C\c2cccc(O)c2)SC1=Nc1ccccc1
not listed: PC-3 prostate | HOP-92 NSCLC | NCI-H522 lung | MALME-3M melanoma | SR leukemia | RPMI-8226 leukemia | MOLT-4 leukemia | HL-60(TB) leukemia | CAKI-1 renal | BT-549 breast | CCRF-CEM leukemia | LOX IMVI melanoma | K-562 leukemia
> 100 µM: all other assays above

CC1Cn2c(nc3ccccc32)NC1=O (stereo not drawn)
not listed: SK-MEL-28 melanoma | SN12C renal | HCC-2998 colon | DU-145 prostate
> 100 µM: all other assays above
